Laboratory results: US11717569B2, “Tolerogenic synthetic nanocarriers” (Selecta Biosciences, Inc., priority 2011, dated 2023)

Columns and labels:
[1] = tested on: Treg cells (CD4+CD25highFoxP3+); experiment: Antigen-specific tolerogenic dendritic cells (tDC) activity on Treg cell development; assay type: cell-based, OTII mice; settings: FIG. 3; unstimulated 1.3%
Experimental: The assay included the use of OTII mice which have a transgenic T cell receptor specific for an immune-dominant ovalbumin peptide (323-339). In order to create antigen-specific tDCs, CD11c^+ splenocytes were isolated, and the ovalbumin peptide (323-339) added in vitro at 1 μg/ml or no antigen. Soluble or nanocarrier-encapsulated rapamycin was then added to the DCs for 2 hours which were then washed extensively to remove free rapamycin from the culture. Purified responder CD4^+CD25^− cells were isolated from OTII mice and added to tDC at a 10:1 T to DC ratio. The mixture of tDC and OTII T cells were then cultured for 4-5 days, and the frequency of Treg cells (CD4^+CD25highFoxP3^+) were analyzed by flow cytometry as shown in FIG. 1. Regions were selected based on isotype controls.
Free rapamycin or synthetic nanocarriers containing rapamycin were combined with free soluble Ovalbumin (323-339) to evaluate induction of tDC (FIG. 2). […] Briefly, antigen specific tDC were obtained by isolating dendritic cells (CD11c^+ splenocytes) and culturing them in combination with the Ovalbumin (323-339) peptide plus soluble or nanocarrier encapsulated rapamycin (Synthetic Nanocarrier #s 13, 14, 15 and 16) for 2 hours followed by extensive washing. […] The mixture of tDC and OTII T cells were then cultured for 4-5 days, and the frequency of Treg cells (CD4^+CD25highFoxP3^+) were analyzed by flow cytometry.

iNKT cells = experiment: CD69 activation on liver iNKT cells in vivo; settings: mice that received aGC
Experimental: Mice were designated to groups that received PBS alone, sol aGC+solRAPA, sol aGC+NP RAPA. Mice were injected at 9 am and at 9.30 AM received BrefeldinA i.v. to prevent release of intracellular cytokines produced. At 1 pm, mice were sacrificed and the liver was perfused with PBS and processed to obtain a single cell suspension enriched for lymphocytes. Cells were stained with cell surface markers for iNKT cells (agc-loaded CD1d tetramers) and T cells receptor (TCRb) and activation marker CD69. Cells were acquired on a FacsCanto flow cytometer and analyzed on by FlowJo.

CO[C@H]1C[C@@H]2CC[C@@H](C)[C@@](O)(O2)C(=O)C(=O)N2CCCC[C@H]2C(=O)O[C@H]([C@H](C)C[C@@H]2CC[C@@H](O)[C@H](OC)C2)CC(=O)[C@H](C)/C=C(\C)[C@@H](O)[C@@H](OC)C(=O)[C@H](C)C[C@H](C)/C=C/C=C/C=C/1C [free rapamycin, Rapamycin] was tested, and the “induction of FoxP3 expressing cells” value [1] was 2.7%.
In the case of CCCCCCCCCCCCCCCCCCCCCCCCCC(=O)N[C@@H](CO[C@H]1O[C@H](CO)[C@H](O)[C@H](O)[C@H]1O)[C@H](O)[C@H](O)CCCCCCCCCCCCCC [aGC, α-Galactosyl Ceramide (KRN7000)], the “iNKT cell activation (cytokine production and up regulation of CD69)” value (iNKT cells) is reported as “activated”.
